Test results published in US20240148821A1, “PHARMACEUTICAL USE OF CYCLIC PEPTIDE COMPOUND” (CHUGAI SEIYAKU KABUSHIKI KAISHA, priority 2021, published 2024).
pIC50: −log10 of the molar value. Numbered stars: 1 amine (or outer) side, 2 acyl side, 3 side chain; on linkers, the order of the positions; unused ones are H or OH. Bridge positions count the residues as written; N and C are the ends. Square brackets hold non-standard residues; d marks the D form. Peptide text beside a SMILES is read from it. * marks the point of attachment. hPhe(3,5-F2-4-CF3) = N[C@@H](CCc1cc(F)c(C(F)(F)F)c(F)c1)C(=O)O; hPhe(3-Cl-4-CF3) = N[C@@H](CCc1ccc(C(F)(F)F)c(Cl)c1)C(=O)O; X7 = O=C([C@@H]1C[C@H](N2CCC(F)(F)CC2)CN1[*:1])[*:2]; NMePhe(4-CF3) = CN[C@@H](Cc1ccc(C(F)(F)F)cc1)C(=O)O; NMePhe(4-F) = CN[C@@H](Cc1ccc(F)cc1)C(=O)O; NMeNva(5,5-F2) = CN[C@@H](CCC(F)F)C(=O)O; hNle(7,7-F2) = N[C@@H](CCCCC(F)F)C(=O)O; NMeGly(cPent) = CN[C@H](C(=O)O)C1CCCC1; NMeAla(cPr) = CN[C@@H](CC1CC1)C(=O)O; NMeCha = CN[C@@H](CC1CCCCC1)C(=O)O; NEtLeu = CCN[C@@H](CC(C)C)C(=O)O; NMeChg = CN[C@H](C(=O)O)C1CCCCC1; NMeI = CC[C@H](C)[C@H](NC)C(=O)O; NMeD = CN[C@@H](CC(=O)O)C(=O)O; NMeL = CN[C@@H](CC(C)C)C(=O)O; NMeV = CN[C@H](C(=O)O)C(C)C; Morpholide = C1CN(*)CCO1; NMeA = CN[C@@H](C)C(=O)O; Piperidide = C1CCN(*)CC1; dNMeA = CN[C@H](C)C(=O)O; Ac5c = NC1(C(=O)O)CCCC1; Aze = O=C(O)[C@@H]1CCN1; Sar = CNCC(=O)O

Legend:
[1] = test system: Human pancreatic cancer cell line AsPC-1 (G12D mutation Kras); assay: AsPC-1 cell growth inhibition (AsPC-1 CGI); format: cell-based; details: read-out: AsPC-1 cell growth inhibition, 50% growth inhibitory concentration (IC50 value); 96 hours, CellTiter-Glo, values classified in ranges
[2] = molecular target: protein-protein interaction between Kras and SOS1 (biotin-tagged human Kras loaded with GDP, His-tagged human SOS1) (Homo sapiens (Human), UniProt P01116, G12D); assay: Protein-protein interaction inhibition between Kras and SOS1 (KrasG12D-SOS PPI) using AlphaScreen; format: biochemical; details: AlphaScreen; biotin-tagged human Kras loaded with GDP, His-tagged human SOS1; read-out: KRAS G12D-SOS PPI IC50;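 note: kras produced in E. coli, Ni-coupled donor beads and streptavidin acceptor beads, excitation 680 nm with emission detected at 520–620 nm via singlet oxygen transfer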

## CC[C@H](C)[C@@H]1NC(=O)[C@H](CC(C)C)N(C)C(=O)C[C@@H](C(=O)N2CCCCC2)N(C)C(=O)[C@H](C2CCCCC2)N(C)C(=O)C2(CCCC2)NC(=O)[C@H](CC2CC2)N(C)C(=O)[C@H](CCc2ccc(C(F)(F)F)c(Cl)c2)NC(=O)CN(C)C(=O)[C@H](CC2CCCCC2)N(C)C(=O)CN(C)C(=O)CN(C)C1=O [Compound 200] ([NMeL]I[Sar][Sar][NMeCha][Sar][hPhe(3-Cl-4-CF3)][NMeAla(cPr)][Ac5c][NMeChg][NMeD]-Piperidide; lactam N-11)
[1]
  pIC50: < 6.30
[2]
  pIC50: 7.89

## CC[C@H](C)[C@@H]1NC(=O)[C@H](CC(C)C)N(C)C(=O)C[C@@H](C(=O)N2CCCCC2)N(C)C(=O)[C@H](CCC(F)F)N(C)C(=O)C2(CCCC2)NC(=O)[C@@H]2CCCN2C(=O)[C@H](CCc2ccc(C(F)(F)F)c(Cl)c2)NC(=O)CN(C)C(=O)[C@H](CC2CCCCC2)N(C)C(=O)[C@@H]2CCN2C(=O)[C@H](C)N(C)C1=O [Compound 1660] ([NMeL]I[NMeA][Aze][NMeCha][Sar][hPhe(3-Cl-4-CF3)]P[Ac5c][NMeNva(5,5-F2)][NMeD]-Piperidide; lactam N-11)
[1]
  pIC50: < 6.30
[2]
  pIC50: 7.80

## CC[C@H](C)[C@@H]1NC(=O)[C@H](C)N(C)C(=O)C[C@@H](C(=O)N2CCCCC2)N(C)C(=O)[C@H](C(C)C)N(C)C(=O)C2(CCCC2)NC(=O)[C@@H]2C[C@H](N3CCC(F)(F)CC3)CN2C(=O)[C@H](CCc2ccc(C(F)(F)F)c(Cl)c2)NC(=O)CN(C)C(=O)[C@H](CC2CCCCC2)N(C)C(=O)CN(C)C(=O)CN(C)C1=O [Compound 460] ([NMeA]I[Sar][Sar][NMeCha][Sar][hPhe(3-Cl-4-CF3)][X7][Ac5c][NMeV][NMeD]-Piperidide; lactam N-11)
[1]
  pIC50: < 6.30
[2]
  pIC50: 9.00

## CC[C@H](C)[C@@H]1NC(=O)[C@H](CC(C)C)N(CC)C(=O)C[C@@H](C(=O)N2CCOCC2)N(C)C(=O)[C@H](C2CCCC2)N(C)C(=O)C2(CCCC2)NC(=O)[C@@H]2CCCN2C(=O)[C@H](CCc2ccc(C(F)(F)F)c(Cl)c2)NC(=O)CN(C)C(=O)[C@H](C2CCCC2)N(C)C(=O)[C@@H]2CCN2C(=O)[C@H](C)N(C)C1=O [Compound 1208] ([NEtLeu]I[NMeA][Aze][NMeGly(cPent)][Sar][hPhe(3-Cl-4-CF3)]P[Ac5c][NMeGly(cPent)][NMeD]-Morpholide; lactam N-11)
[1]
  pIC50: ≥ 7.70
[2]
  pIC50: 9.16

## CC[C@H](C)[C@@H]1NC(=O)[C@H](C)N(C)C(=O)C[C@@H](C(=O)N2CCCCC2)N(C)C(=O)[C@H](C(C)C)N(C)C(=O)C2(CCCC2)NC(=O)[C@@H]2CCCN2C(=O)[C@H](CCc2ccc(C(F)(F)F)c(Cl)c2)NC(=O)[C@@H](C)N(C)C(=O)[C@H](Cc2ccc(F)cc2)N(C)C(=O)[C@@H]2CCN2C(=O)[C@H](C)N(C)C1=O [Compound 1816] ([NMeA]I[NMeA][Aze][NMePhe(4-F)][dNMeA][hPhe(3-Cl-4-CF3)]P[Ac5c][NMeV][NMeD]-Piperidide; lactam N-11)
[1]
  pIC50: < 6.30
[2]
  pIC50: 7.92

## CC[C@H](C)[C@@H]1NC(=O)[C@H](CC(C)C)N(C)C(=O)C[C@@H](C(=O)N2CCOCC2)N(C)C(=O)[C@H]([C@@H](C)CC)N(C)C(=O)C2(CCCC2)NC(=O)[C@@H]2CCCN2C(=O)[C@H](CCc2cc(F)c(C(F)(F)F)c(F)c2)NC(=O)CN(C)C(=O)[C@H](Cc2ccc(C(F)(F)F)cc2)N(C)C(=O)[C@@H]2CCN2C(=O)[C@H](C)N(C)C1=O [Compound 1362] ([NMeL]I[NMeA][Aze][NMePhe(4-CF3)][Sar][hPhe(3,5-F2-4-CF3)]P[Ac5c][NMeI][NMeD]-Morpholide; lactam N-11)
[1]
  pIC50: ≥ 7.70
[2]
  pIC50: 9.09

## CC(C)C[C@H]1C(=O)N[C@@H](CCCCC(F)F)C(=O)N(C)[C@@H](C)C(=O)N2CC[C@H]2C(=O)N(C)[C@@H](CC2CCCCC2)C(=O)N(C)CC(=O)N[C@@H](CCc2ccc(C(F)(F)F)c(Cl)c2)C(=O)N2CCC[C@H]2C(=O)NC2(CCCC2)C(=O)N(C)[C@@H](C(C)C)C(=O)N(C)[C@H](C(=O)N2CCCCC2)CC(=O)N1C [Compound 145] ([NMeL][hNle(7,7-F2)][NMeA][Aze][NMeCha][Sar][hPhe(3-Cl-4-CF3)]P[Ac5c][NMeV][NMeD]-Piperidide; lactam N-11)
[1]
  pIC50: < 6.30
[2]
  pIC50: 7.60

## CC[C@H](C)[C@@H]1NC(=O)[C@H](C)N(C)C(=O)C[C@@H](C(=O)N2CCCCC2)N(C)C(=O)[C@H](C(C)C)N(C)C(=O)C2(CCCC2)NC(=O)[C@H](Cc2ccccc2)NC(=O)[C@H](CCc2ccc(C(F)(F)F)c(Cl)c2)NC(=O)CN(C)C(=O)[C@H](CC2CCCCC2)N(C)C(=O)CN(C)C(=O)CN(C)C1=O [Compound 1125] ([NMeA]I[Sar][Sar][NMeCha][Sar][hPhe(3-Cl-4-CF3)]F[Ac5c][NMeV][NMeD]-Piperidide; lactam N-11)
[1]
  pIC50: < 6.30
[2]
  pIC50: 8.60
